Experimental data as given in patent publication US12011475B2, “Polypeptide, polypeptide fragment, derivative thereof, and applications thereof” (CHENGDU HUITAI BIOMEDICINE CO., LTD., priority 2017, dated 2024).
Ends that are not written are not given here.

Key:
Format in all cases: in vivo
[1] = tested on: rat with pulmonary fibrosis induced by bleomycin; test: HE staining score, intravenous injection (Example 23); conditions: inflammatory pathology score, grade 0 to 3; intravenous injection 10 mg/kg once a day, 4th to 13th day after bleomycin 4 mg/kg; Mean ± SEM
From the text: (§1) The lung tissue of the rats of Example 2 was taken, fixed with 4% paraformaldehyde and embedded in paraffin. The wax block embedded the lung tissue was sectioned along the largest cross section. Pathological changes in lung tissue were observed using hematoxylin-eosin (HE) staining. Pathological changes in lung tissue were observed under a light microscope (low magnification) at a magnification of 100 times (the result is shown in FIG. 2).
According to the method provided by Szapie, et al., the degree of alveolitis was graded according to the range of lesions and could be divided into 0 to 3 grades, corresponding to 0 to 3 points. The evaluation indexes for the degree of alveolitis are as follows: grade 0, no alveolitis; grade 1, mild alveolitis, manifested as a slight increase in alveolar septum, infiltration of monocytes, near the pleura or localized, with a lesion range of less than 20% without alveolar structural damage; grade 2, moderate alveolitis, the lesion ranges from 20% to 50%, relatively severe near the pleura; grade 3, severe alveolitis, diffusely distributed, the lesion range is more than 50%, with pulmonary parenchymal lesion occasionally.
The rats were weighed before administration, intramuscularly injected with 65 mg/kg Zoletil anesthetic solution. After the rats entered the stage III anesthesia, the experimental rats were fixated in the lateral decubitus. […]

tgf-β = test: mRNA content of tgf-β in rat lung tissue by qPCR (Example 26); conditions: 18S RNA internal reference; intravenous injection 10 mg/kg once a day, 4th to 13th day after bleomycin 4 mg/kg; Mean ± SEM
Experimental: (§2) The rats were weighed before administration, intramuscularly injected with 65 mg/kg Zoletil anesthetic solution. After the rats entered the stage III anesthesia, the experimental rats were fixated in the lateral decubitus. Gavage needle size 12 was inserted into rat trachea through oral cavity along the glottis to instill sterile saline or bleomycin (4 mg/kg) (Day 0). After the anesthesia, the rats in control group were intratracheally instilled with an equal volume of sterile saline, and the rats in model group and treatment groups were intratracheally instilled with bleomycin (4 mg/kg). On the 4th day, the sterile saline or peptide drug was injected through the tail vein once a day until the 13th day. The rats were sacrificed on the 14th day for subsequent experiments. […]
The rat lung tissue in the control group, the model group and the treatment groups of Example 20 was taken. […] After obtaining cDNA using reverse transcription, fluorescence quantitative PCR (qPCR) kit (Applied Biosystems, Cat. No. 4319413E) was used to detect the mRNA content of tgf-β (forward primer: GAGGTGACCTGGGCACCAT, reverse primer: GGCCATGAGGAGCAGGAA), 18S RNA was used as an internal reference, and the result is shown in the tgf-β values in Table 4.

[2] = tested on: rat with pulmonary fibrosis induced by bleomycin; test: Hydroxyproline content in rat lung tissue, acid hydrolysis, intravenous injection (Example 25); conditions: intravenous injection 10 mg/kg once a day, 4th to 13th day after bleomycin 4 mg/kg; Mean ± SEM
Experimental: as §2, with “experiments. The rats in the control group were received no drug treatment; the rats in the model group were injected with sterile saline through the tail vein; the rats in the treatment groups were injected with corresponding peptide drug (10 mg/kg) through the tail vein.” for “experiments.”
The lung tissue in the model group, the control group and the treatment groups of Example 20 was taken, and the hydroxyproline content in lung tissue was detected using BioVision Hydroxyproline Acid Hydrolysis Assay Kit (Cat. No. K555-100), the result is shown in the HYP values in Table 4.

[3] = tested on: rat with pulmonary fibrosis induced by bleomycin; test: Masson staining score, intravenous injection (Example 24); conditions: fibrosis pathology score, grade 0 to 8; intravenous injection 10 mg/kg once a day, 4th to 13th day after bleomycin 4 mg/kg; Mean ± SEM
From the text: as §1, with “9” for “2”, “staining by Masson's trichrome stain (Masson).” for “hematoxylin-eosin (HE) staining.”, “15).” for “2).”
According to the Modified Ashcroft scale scoring method, the degree of pulmonary fibrosis was evaluated according to the range of lesions and could be divided into 0 to 8 grades.
as §2, with “day.” for “day. The rats were sacrificed on the 14th day for subsequent experiments.”

[4] = tested on: rat with pulmonary fibrosis induced by bleomycin; test: Lung coefficient, intravenous injection (Example 22); conditions: lung mass (mg)/body weight (g); intravenous injection 10 mg/kg once a day, 4th to 13th day after bleomycin 4 mg/kg; Mean ± SEM
Experimental: The rats in Example 2 were weighed and sacrificed by anesthesia overdose. Lung tissue of both sides of the rats was taken, and the connective tissue around the lung tissue was carefully removed. After washing with saline and dried with a filter paper, the wet weight of the whole lung was weighted by an electronic balance. After the wet weight of the whole lung was weighted by the electronic balance, the lung coefficient was calculated according to the formula, lung coefficient=lung mass (mg)/body weight (g) (the result is shown in FIG. 1).
as §2, with “mg/kg).” for “mg/kg). On the 4th day, the sterile saline or peptide drug was injected through the tail vein once a day until the 13th day. The rats were sacrificed on the 14th day for subsequent experiments.”
The experimental rats of the control group, the model group and the treatment groups of Example 20 were taken, the lung weight was measured and the lung coefficient was calculated. […]

[5] = tested on: rat with pulmonary fibrosis induced by bleomycin; test: Rat weight, intratracheal instillation (Examples 15-16); conditions: Day 14/Day 0, 8 mg/kg peptide + 4 mg/kg bleomycin simultaneously, Mean ± SEM
Experimental: The rats were weighed before administration, intramuscular injection of Zoletil anesthetic solution, the dose was 65 mg/kg. After the rats entered the stage III anesthesia, the experimental rats were bond in the incline lateral decubitus. A size 12 gavage needle was inserted into rat trachea through oral cavity along the glottis to infuse the drug. The experimental animals were fed normally from the 1st day to the 14th day after intratracheal administration, and were weighed regularly every day without restriction of feed or drinking water.
The rats in model group were intratracheally instilled with bleomycin (4 mg/kg); after anesthesia, the rats in treatment groups were intratracheally instilled with bleomycin (4 mg/kg) and corresponding therapeutic drug (8 mg/kg) simultaneously. The remaining implementation steps were the same as the description of Example 9.
The model and the administration route were referred to Example 15. The experimental rats in the control group, the model group, and the treatment groups described in Example 15 were weighted every day from the 1st day until the 14th day. When weighing, the “unstable weighing” of the electronic balance was selected, and an appropriate number of weighing and a degree of tolerable instability during the reading phase were set according to the instructions to weigh and record the readings. […]

## YRVRFLAKENVTQDAEDN [N1]
[1]
  HE Score: 2.44 ± 0.24
tgf-β
  tgf-β (mRNA content of tgf-β in lung tissue): 2.50 ± 0.04
[2]
  HYP (hydroxyproline content in lung tissue): 34.09 ± 5.01
[3]
  Masson Score: 3.85 ± 0.11
[4]
  Lung Coefficient: 9.25 ± 0.28
[5]
  Weight Ratio: 1.05 ± 0.02
